System: Cuphea C10-preferring acyl-ACP thioesterase (preparation from Example 9C)
Experiment: Acyl-ACP hydrolysis by the Cuphea preparation from Example 9C
Type: biochemical, Cuphea hookeriana
Conditions: 0.5µM acyl-ACP, pH 9, 30°C for 60 min; corrected for non-enzymatic hydrolysis
Protocol: As a more preferred alternative to Example 9A or 9B, forty grams of polyvinylpolypyrrolidone (PVPP) are mixed with 550 ml "extraction buffer" comprising 200 mM bis-Tris-HCl pH 6., 10mM 2-mercaptoethanol, 1% (w/v) polyvinylpyrrolidone-10. To this mixture are added 40g frozen Cuphea seeds. The mixture is then blended in a Polytron homogenizer until no intact seeds remain and the slurry is smooth. This and all subsequent steps are conducted at 0-4°C. The preparation is centrifuged at 12,000xg for 20 min and further clarified by filtration through Miracloth.
This preparation is mixed with 100ml of settled hydroxyapatite which has been equilibrated with "buffer A" (50mM bis-Tris-HCl pH 6., […] 2-mercaptoethanol). Three extract volumes of 10mM 2-mercaptoethanol are then added slowly over 30 min, with constant stirring. The hydroxyapatite gel is collected on a sintered glass funnel and rinsed with buffer A until the effluent is colorless. The collected hydroxyapatite is then transferred to a column and further rinsed with buffer A at 2ml/min until the column is packed. A 400ml elution gradient is applied (2ml/min), from buffer A to buffer B (300mM potassium phosphate pH 6.9 in buffer A). Effluent fractions are assayed for hydrolysis of 10:0-ACP. Two overlapping peaks of activity are obtained. The fractions comprising the later-eluting peak are pooled and dialyzed against buffer A.
The dialyzed material is applied at 1.3ml/min to a 2.5 x 6.5cm column of Blue 4 Agarose (Sigma Chemical Co.; St. Louis, MO) equilibrated with buffer A. The column is washed with buffer A, and enzyme activity is subsequently eluted with a 400ml gradient from buffer A to buffer C (buffer A containing 1M NaCl). The eluted fractions contain three peaks of 10:0-ACP hydrolysis activity. Those fractions comprising the second peak to elute (eluted by approximately 0.4m NaCl) are pooled and dialyzed against buffer A. […]
The preparation from Example 9C is relatively selective in its hydrolysis of acyl-ACP thioesters, as shown in the following table: (These activities were determined as follows. Twenty five µl of sample were added to 75µl assay buffer comprising 100mM glycine-KOH pH 9, 0.2% (w/v) CHAPS, 10mM 2-mercaptoethanol, and containing radiolabeled acyl-ACP for a final concentration of 0.5µM. After incubation at 30°C for 60 min, the reaction was terminated by addition of 0.5ml 10% (v/v) acetic acid, and the liberated fatty acid product was extracted with 1ml diethyl ether. Enzyme activity was measured by the radioactivity of this ether extract, determined by liquid scintillation counting. […]

14:0-ACP
Activity: 30 cpm

decanoyl-ACP [10:0-ACP]
Activity: 1010 cpm

lauroyl-ACP [12:0-ACP]
Activity: 393 cpm

16:0-ACP
Activity: 262 cpm
